Results: patent publication US20080019913A1 (UNIVERSITY OF ARIZONA OFFICE OF TECHNOLOGY TRANSFER, published 2008)
Non-standard residues stand in square brackets, D forms with d. Residues, ends and D or L forms follow the SMILES beside them. No end group written: not given here. *: point of attachment. β‑lactoside = OC[C@H]1O[C@@H](O[C@H]2[C@H](O)[C@@H](O)[C@H](*)O[C@@H]2CO)[C@H](O)[C@@H](O)[C@H]1O; X2 = OC[C@H]1O[C@@H](O[C@H]2[C@H](O)[C@@H](O)[C@H](*)O[C@@H]2CO)[C@H](O)[C@@H](O)[C@H]1O; βGlc = OC[C@H]1O[C@@H](*)[C@H](O)[C@@H](O)[C@@H]1O; β‑D‑xyloside = O[C@@H]1[C@@H](O)[C@H](*)OC[C@H]1O; X1 = O[C@@H]1[C@@H](O)[C@H](*)OC[C@H]1O; NMeF = CN[C@@H](Cc1ccccc1)C(=O)O

Experiments:
[1] = test system: adult male ICR mice; experiment: 55° C. warm water tail-flick test (antinociception); format: in vivo, mouse; settings: for A50 i.c.v. / A50 i.v.: mouse 55° C. tail-flick, time of peak effect; for A50 i.c.v.: i.c.v. administration; for A50 i.v.: i.v. administration
Procedure: All in vivo studies used adult male ICR mice (25-30 g; Harlan Industries, Cleveland, Ohio, USA) that were maintained on a 12 h light/dark cycle (lights on at 07:00 hours) in a temperature and humidity-controlled animal colony. All testing was carried out between 10:00 and 15:00 hours. Studies were carried out in accordance with the Guide for the Care and Use of Laboratory Animals as adopted and promulgated by the National Institutes of Health.
For intracerebroventricular (i.c.v.) injections, mice were lightly anesthetized with ether and an incision was made in the scalp. Injections were performed using a 10 μL Hamilton microsyringe (Hamilton Company, Reno, Nev., USA) at a point 2 mm caudal and 2 mm lateral from bregma. Compounds were injected at a depth of 3 mm in a volume of 5 μL. Intravenous (i.v.) injections were performed by restraining the mouse in a Plexiglas holder, dipping the tail for 10 seconds in 40° C. warm water to dilate the tail vein, and subsequent injection into the vein with a 30-gauge needle. All compounds were dissolved in distilled water (i.c.v. injections) or physiologic saline (i.v. injections).
Antinociception was assessed using the 55° C. warm water tail-flick test. The latency to the first sign of a rapid tail-flick was taken as the behavioral end-point. Each mouse was first tested for baseline latency by immersing its tail in the water and recording the time to response. Mice not responding within 5 seconds were excluded from further testing (average latency=2.1 seconds). Mice were then administered the test compound and tested for antinociception at 10, 20, 30, 45, 60, 90, 120 and 180 min postinjection. A maximum score was assigned (100%) to animals not responding within 10 seconds. Antinociception was calculated by the following formula: % antinociception=100·(test latency ) control latency)/(10 ) control latency). Dose-response lines were constructed at times of peak agonist effect, and analyzed by linear regression using […] software (17). All A50 values (95% confidence limits) shown were calculated from the linear portion of the dose-response curve. A minimum of three doses/curve and 8-10 mice were used at each dose level.

[2] = target: T1, human μ-opioid receptor (MOR) (Homo sapiens, UniProt P35372); experiment: biochemical; format: binding
T1 construct: expressed in transfected cells; host or cells: Chinese hamster ovary (CHO) cells

[3] = target: T2, human Δ-opioid receptor (DOR) (Homo sapiens, UniProt P41143); experiment: biochemical; format: binding
T2 construct: expressed in transfected cells; host or cells: Chinese hamster ovary (CHO) cells

[4] = target: human δ-opioid receptor (human) (UniProt P41143); experiment: ratio of Ki values from radioligand competition, reference MOR
[5] = target: human δ-opioid receptor (human) (UniProt P41143); experiment: radioligand competition against [3H]naltrindole, CHO cell membranes expressing human DOR
[6] = target: T3, human κ-opioid receptor (human, UniProt P41145 1-380); experiment: ratio of Ki values from radioligand competition, reference MOR
T3 construct: whole, on cells; Assayed as membranes of CHO cells expressing the receptor; also called KOR
Procedure: (§1) Binding was determined in Chinese hamster ovary (CHO) cell membranes expressing either the human μ-, Δ-, or κ-opioid receptors (MOR, DOR, and KOR). Cells were incubated with 12 concentrations of glycopeptide and the indicated radiolabeled ligand (Table 1, below). Non-specific binding was measured by inclusion of 10 μM naloxone. Data are the mean Kᵢ values±SEM from three experiments performed in triplicate.

[7] = target: T3, human κ-opioid receptor; experiment: radioligand competition against [3H]U69,593, CHO cell membranes expressing human KOR
Procedure: as §1

[8] = target: T4, human µ-opioid receptor (human, UniProt P35372 1-400); experiment: radioligand competition against [3H]DAMGO, CHO cell membranes expressing human MOR
T4 construct: whole, on cells; Assayed as membranes of CHO cells expressing the receptor; also called MOR; mu opioid receptor
Procedure: as §1

`C[C@@H](NC(=O)[C@@H](N)Cc1ccc(O)cc1)C(=O)NCC(=O)N(C)[C@@H](Cc1ccccc1)C(=O)NCCO` [DAMGO 1, [D-Ala^2,Me-Phe^4Gly^5(ol)]enkephalin, reference compound] was tested, and the A50 i.c.v. [1] was 30 pmol per mouse and the A50 i.v. [1] was 1.88 µmol/kg.

For `C[C@@H](NC(=O)[C@@H](N)Cc1ccc(O)cc1)C(=O)NCC(=O)N(C)[C@@H](Cc1ccccc1)C(=O)N[C@@H](CO[C@@H]1O[C@H](CO)[C@@H](O)[C@H](O)[C@H]1O)C(N)=O` [Compound 4] (H-Y[dA]G[NMeF]S(βGlc)-NH2; N-terminus assumed), the duration of action ([1]; after i.c.v. administration, tail-flick) was > 180 min, the A50 i.c.v. [1] was 19 pmol per mouse and the A50 i.v. [1] was 0.72 µmol/kg. For the same molecule, the Ki [2] was 1.3 ± 0.09 nM and the Ki [3] was > 5000 nM.

Work on `C[C@@H](NC(=O)[C@@H](N)Cc1ccc(O)cc1)C(=O)NCC(=O)N(C)[C@@H](Cc1ccccc1)C(=O)N[C@@H](CO)C(N)=O` [Compound 2] (HELM PEPTIDE1{Y.[dA].G.[meF].S.[am]}$$$$V2.0; N-terminus assumed) yielded an A50 i.c.v. [1] of 2.0 pmol per mouse, an A50 i.v. [1] of 0.20 µmol/kg and a Ki [3] of 600 ± 44 nM.

“DAMGO [D-Ala^2,Me-Phe^4Gly^5(ol)]enkephalin (peptide)” showed a Ratio µ:δ:κ (Ki at δ relative to µ) [4] of 1900 and a Ki [5] of 990 nM.

Work on `C[C@@H](NC(=O)[C@@H](N)Cc1ccc(O)cc1)C(=O)NCC(=O)N(C)[C@@H](Cc1ccccc1)C(=O)N[C@@H](CO[C@@H]1OC[C@@H](O)[C@H](O)[C@H]1O)C(N)=O` [Compound 3] (H-Y[dA]G[NMeF]S(X1)-NH2; N-terminus assumed) yielded an A50 i.c.v. [1] of 2.0 pmol per mouse, an A50 i.v. [1] of 0.27 µmol/kg and a Ki [2] of 1.3 ± 0.16 nM. The Ki [3] was 730 ± 66 nM.

With `CN1CC[C@]23c4c5ccc(O)c4O[C@H]2[C@@H](O)C=C[C@H]3[C@H]1C5` [Morphine, reference compound] the A50 i.v. [1] was 7.84 µmol/kg.

Molecule `C[C@@H](NC(=O)[C@@H](N)Cc1ccc(O)cc1)C(=O)NCC(=O)N(C)[C@@H](Cc1ccccc1)C(=O)N[C@@H](CO[C@@H]1O[C@H](CO)[C@@H](O[C@@H]2O[C@H](CO)[C@H](O)[C@H](O)[C@H]2O)[C@H](O)[C@H]1O)C(N)=O` [Compound 5] (H-Y[dA]G[NMeF]S(X2)-NH2; N-terminus assumed) has an A50 i.c.v. [1] of 2.0 pmol per mouse, an A50 i.v. [1] of 1.15 µmol/kg and a Ki [3] of 1600 ± 129 nM.

B1: DAMGO analog compound (3), C-terminal L-serine amide beta-D-xyloside (peptide)
peptide: Y[dA]G[NMeF]S(β‑D‑xyloside)-NH2
modifications: N-terminus assumed
SMILES: C[C@@H](NC(=O)[C@@H](N)Cc1ccc(O)cc1)C(=O)NCC(=O)N(C)[C@@H](Cc1ccccc1)C(=O)N[C@@H](CO[C@@H]1OC[C@@H](O)[C@H](O)[C@H]1O)C(N)=O
notes: Glycopeptide; also called glycopeptide 3
B1 was tested, and the Ratio µ:δ:κ (Ki at δ relative to µ) [4] was 560, the “Ratio µ:δ:κ (Ki at κ relative to µ)” value [6] was 120 and the Ki [7] was 160 nM.

B2: DAMGO analog compound (2), C-terminal L-serine amide (peptide)
peptide: YAGFS
HELM: PEPTIDE1{Y.[dA].G.[meF].S.[am]}$$$$V2.0; N-terminus assumed
SMILES: C[C@@H](NC(=O)[C@@H](N)Cc1ccc(O)cc1)C(=O)NCC(=O)N(C)[C@@H](Cc1ccccc1)C(=O)N[C@@H](CO)C(N)=O
notes: Made by Fmoc synthesis on Rink amide resin; also called peptide 2
For B2, the Ratio µ:δ:κ (Ki at δ relative to µ) [4] was 880, the “Ratio µ:δ:κ (Ki at κ relative to µ)” value [6] was 280 and the Ki [8] was 0.68 nM. The Ki [7] was 190 nM.

B3: DAMGO analog compound (4), C-terminal L-serine amide beta-D-glucoside (peptide)
peptide: Y[dA]G[NMeF]S(βGlc)-NH2
modifications: N-terminus assumed
SMILES: C[C@@H](NC(=O)[C@@H](N)Cc1ccc(O)cc1)C(=O)NCC(=O)N(C)[C@@H](Cc1ccccc1)C(=O)N[C@@H](CO[C@@H]1O[C@H](CO)[C@@H](O)[C@H](O)[C@H]1O)C(N)=O
notes: Glycopeptide; also called glycopeptide 4
In the case of B3, the Ratio µ:δ:κ (Ki at δ relative to µ) [4] is reported as 3800, the “Ratio µ:δ:κ (Ki at κ relative to µ)” value [6] is reported as 130 and the Ki [7] is reported as 170 nM.

B4: DAMGO analog compound (5), C-terminal L-serine amide beta-lactoside (peptide)
peptide: Y[dA]G[NMeF]S(β‑lactoside)-NH2
modifications: N-terminus assumed
SMILES: C[C@@H](NC(=O)[C@@H](N)Cc1ccc(O)cc1)C(=O)NCC(=O)N(C)[C@@H](Cc1ccccc1)C(=O)N[C@@H](CO[C@@H]1O[C@H](CO)[C@@H](O[C@@H]2O[C@H](CO)[C@H](O)[C@H](O)[C@H]2O)[C@H](O)[C@H]1O)C(N)=O
notes: Glycopeptide; also called glycopeptide 5
In the case of B4, the Ratio µ:δ:κ (Ki at δ relative to µ) [4] is reported as 2400, the “Ratio µ:δ:κ (Ki at κ relative to µ)” value [6] is reported as 530 and the Ki [8] is reported as 0.66 nM. The Ki [7] was 350 nM.
